From patent US12187728B2 (Raze Therapeutics, Inc., priority 2015, dated 2025)

Target: T1, Human MTHFD2 (Homo sapiens, UniProt P13995)
T1 construct: residues 36-350 in Uniport ID P13995; His6 (N); made in house; host or cells: E. coli
T1 sequence (P13995 36-350): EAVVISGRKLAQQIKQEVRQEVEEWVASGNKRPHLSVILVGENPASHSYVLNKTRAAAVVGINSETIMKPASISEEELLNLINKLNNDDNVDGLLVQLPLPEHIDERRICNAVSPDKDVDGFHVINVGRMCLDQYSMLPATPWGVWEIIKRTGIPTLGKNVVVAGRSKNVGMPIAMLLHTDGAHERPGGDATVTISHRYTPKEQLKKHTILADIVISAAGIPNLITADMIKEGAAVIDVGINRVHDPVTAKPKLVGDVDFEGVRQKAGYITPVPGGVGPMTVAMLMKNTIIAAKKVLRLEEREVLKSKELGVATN
Experiment: MTHFD2 Activity Assay (dehydrogenase activity, diaphorase/resazurin coupled fluorescence)
Assay type: biochemical
Conditions: inhibitory activity (IC50 and/or binding constant); 0.2 nM MTHFD2, 11 concentrations
Source text: Human MTHFD2 (residues 36-350 in Uniport ID P13995) was expressed as an N-terminal His6 tagged protein and purified in E. coli using nickel capture followed by size-exclusion chromatography.
MTHFD2 dehydrogenase activity oxidizes methylene tetrahyrofolate to methenyl-tetrahydrofolate with the concomitant reduction of NAD to NADH. MTHFD2 dehydrogenase activity was followed by coupling the generation of NADH to diaphorase catalyzed […] of resazurin to fluorescent resorufin. Briefly, control (DMSO) or compound was incubated with 0.2 nM MTHFD2 for 15 minutes in 10.5 μl assay buffer containing 100 mM Hepes, pH 8.0, 5 mM MgCl2, 5 mM KH2PO4, 0.05% BSA, 0.01% Tween-20 in a 384 well Griener, low volume, black plate. 10 μl of substrate buffer containing 70 μM CH2-THF, 1 mM NAD^+, 100 μM Resazurin and 0.42 mg/ml diaphorase was then added to initiate the reaction and the reaction plate was incubated for 30 minutes. 5 μl of 250 mM EDTA was then added to each well to stop the reaction and MTHFD2 activity was quantified by measuring resorufin fluorescence emission at 598 nm following excitation at 525 nm. Activity in positive control wells containing the complete reaction mixture and DMSO alone was set to 100% while activity in negative control wells with the complete reaction mix without MTHFD2 was set to 0%. 11 concentrations of each compound were tested and the fluorescent data at each concentration was normalized to the positive and negative controls and represented as % inhibition. Median inhibitory concentration (IC50) was calculated by fitting % inhibition at each concentration to a 4 parameter logistic fit equation using Graphpad Prizm.
The compound numbers correspond to the compound numbers in Table A (i.e., the example numbers).

| IC50 | SMILES |
| --- | --- |
| 0.01 to 1 µM | Cn1c(=O)n(Cc2ccc(Cl)c(Cl)c2)c(=O)c2c1nc(NC1CCCC(C(=O)O)C1)n2CCC(N)=O (stereo not drawn) [Example 318, 3-(7-(3-amino-3-oxopropyl)-1-(3,4-dichlorobenzyl)-3-methyl-2,6-dioxo-2,3,6,7-tetrahydro-1H-purin-8-ylamino)cyclohexanecarboxylic acid] |
| 0.01 to 1 µM | Cn1c(Nc2ccncc2)nc2c1c(=O)n(Cc1ccc3ccccc3c1)c(=O)n2C [Example 349, 3,7-dimethyl-1-(naphthalen-2-ylmethyl)-8-(pyridin-4-ylamino)-1H-purine-2,6(3H,7H)-dione] |
| 0.01 to 1 µM | Cn1c(N[C@H]2CC[C@@H](CO)C2)nc2c1c(=O)n(Cc1cc3ccccc3[nH]1)c(=O)n2C (stereo in doubt) [Example 317, 1-((1H-indol-2-yl)methyl)-8-((1S,3R)-3-(hydroxymethyl)cyclopentylamino)-3,7-dimethyl-1H-purine-2,6(3H,7H)-dione] |
| 0.01 to 1 µM | Cn1c(Cn2c(=O)c3c(nc(-n4nccc4N)n3C)n(C)c2=O)cc2cc(Cl)ccc21 [Example 220, 8-(5-amino-1H-pyrazol-1-yl)-1-((5-chloro-1-methyl-1H-indol-2-yl)methyl)-3,7-dimethyl-1H-purine-2,6(3H,7H)-dione] |
| 0.01 to 1 µM | Cn1c(C(O)c2ccccc2)nc2c1c(=O)n(Cc1cc3c(Cl)cccc3[nH]1)c(=O)n2C (stereo not drawn) [Example 388, 1-((4-chloro-1H-indol-2-yl)methyl)-8-(hydroxy(phenyl)methyl)-3,7-dimethyl-1H-purine-2,6(3H,7H)-dione] |
| 1 to 5 µM | Cn1c(NC2CCCCC2)nc2c1c(=O)n(Cc1ccc(Cl)c(Cl)c1)c(=O)n2C [Example 59, 8-(cyclohexylamino)-1-[(3,4-dichlorophenyl)methyl]-3,7-dimethyl-2,3,6,7-tetrahydro-1H-purine-2,6-dione] |
| 0.01 to 1 µM | Cc1cccc2[nH]c(Cn3c(=O)c4c(nc(Nc5ccncc5)n4C)n(C)c3=O)c(C)c12 [Example 419, 1-((3,4-dimethyl-1H-indol-2-yl)methyl)-3,7-dimethyl-8-(pyridin-4-ylamino)-1H-purine-2,6(3H,7H)-dione] |
| 0.01 to 1 µM | Cn1c(C(N)C2CCC2)nc2c1c(=O)n(Cc1cc3c(Cl)cccc3[nH]1)c(=O)n2C (stereo not drawn) [Example 443, 8-[amino(cyclobutyl)methyl]-1-[(4-chloro-1H-indol-2-yl)methyl]-3,7-dimethyl-purine-2,6-dione] |
| > 10 µM | Cn1c(NCCCO)nc2c1c(=O)n(-c1ccc(Cl)c(Cl)c1)c(=O)n2C [Example 62, 1-(3,4-dichlorophenyl)-8-[(3-hydroxypropyl)amino]-3,7-dimethyl-2,3,6,7-tetrahydro-1H-purine-2,6-dione] |
| 0.01 to 1 µM | Cn1c(NC[C@H](O)CO)nc2c1c(=O)n(Cc1ccc(Cl)c(Cl)c1)c(=O)n2C [Example 14, 1-[(3,4-dichlorophenyl)methyl]-8-{[(2S)-2,3-dihydroxypropyl]amino}-3,7-dimethyl-2,3,6,7-tetrahydro-1H-purine-2,6-dione] |
| 0.01 to 1 µM | Cn1c(CCN2CCOCC2)nc2c1c(=O)n(Cc1cc3ccccc3[nH]1)c(=O)n2C [Example 226, 1-((1H-indol-2-yl)methyl)-3,7-dimethyl-8-(2-morpholinoethyl)-1H-purine-2,6(3H,7H)-dione] |
| 1 to 5 µM | Cn1c(NCc2ccccn2)nc2c1c(=O)n(Cc1ccc(Cl)c(Cl)c1)c(=O)n2C [Example 139, 1-(3,4-dichlorobenzyl)-3,7-dimethyl-8-(pyridin-2-ylmethylamino)-1H-purine-2,6(3H,7H)-dione] |
| 0.01 to 1 µM | Cn1c(NC2(C(=O)O)CCCC2)nc2c1c(=O)n(Cc1ccc(Cl)c(Cl)c1)c(=O)n2C [Example 148, 1-(1-(3,4-dichlorobenzyl)-3,7-dimethyl-2,6-dioxo-2,3,6,7-tetrahydro-1H-purin-8-ylamino)cyclopentanecarboxylic acid] |
| 0.01 to 1 µM | Cn1c(Nc2ccc(Cl)nc2)nc2c1c(=O)n(Cc1cc3c(Cl)cccc3[nH]1)c(=O)n2C [Example 381, 1-((4-chloro-1H-indol-2-yl)methyl)-8-(6-chloropyridin-3-ylamino)-3,7-dimethyl-1H-purine-2,6(3H,7H)-dione] |
| 0.01 to 1 µM | Cn1c(Nc2ncc[nH]2)nc2c1c(=O)n(Cc1cc3c(Cl)cccc3[nH]1)c(=O)n2C [Example 356, 1-[(4-chloro-1H-indol-2-yl)methyl]-8-(1H-imidazol-2-ylamino)-3,7-dimethyl-purine-2,6-dione] |
| > 10 µM | Cn1c(NC2CC(F)(F)C2)nc2c1c(=O)n(Cc1ccc(C(F)(F)F)cc1)c(=O)n2C [Example 145, 8-(3,3-difluorocyclobutylamino)-3,7-dimethyl-1-(4-(trifluoromethyl)benzyl)-1H-purine-2,6(3H,7H)-dione] |
| 0.01 to 1 µM | Cn1c(N[C@@H]2CCC[C@H](C(=O)O)C2)nc2c1c(=O)n(Cc1ccc(Cl)c(Cl)c1)c(=O)n2C (single isomer, unassigned) [Example 187, (1S,3R)-3-(1-(3,4-dichlorobenzyl)-3,7-dimethyl-2,6-dioxo-2,3,6,7-tetrahydro-1H-purin-8-ylamino)cyclohexanecarboxylic acid or (1R,3S)-3-(1-(3,4-dichlorobenzyl)-3,7-dimethyl-2,6-dioxo-2,3,6,7-tetrahydro-1H-purin-8-ylamino)cyclohexanecarboxylic acid] |
| 1 to 5 µM | CN(C)C1CCCC(Nc2nc3c(c(=O)n(Cc4ccc(Cl)c(Cl)c4)c(=O)n3C)n2C)C1 (racemic) [Example 84, (±)-1-(3,4-dichlorobenzyl)-8-(((cis)-3-(dimethylamino)cyclohexyl)amino)-3,7-dimethyl-3,7-dihydro-1H-purine-2,6-dione or (±)-1-(3,4-dichlorobenzyl)-8-(((trans)-3-(dimethylamino)cyclohexyl)amino)-3,7-dimethyl-3,7-dihydro-1H-purine-2,6-dione] |
| 0.01 to 1 µM | Cn1c(-n2nccc2N)nc2c1c(=O)n(Cc1cc3cc(Cl)ccc3[nH]1)c(=O)n2C [Example 219, 8-(5-amino-1H-pyrazol-1-yl)-1-((5-chloro-1H-indol-2-yl)methyl)-3,7-dimethyl-1H-purine-2,6(3H,7H)-dione] |
| 0.01 to 1 µM | Cc1ccc2[nH]c(Cn3c(=O)c4c(nc(N5CCC(O)CC5)n4C)n(C)c3=O)cc2c1 [Example 193, 8-(4-hydroxypiperidin-1-yl)-3,7-dimethyl-1-((5-methyl-1H-indol-2-yl)methyl)-1H-purine-2,6(3H,7H)-dione] |
| 1 to 5 µM | CNc1nc2c(c(=O)n(Cc3ccc(Cl)c(Cl)c3)c(=O)n2C)n1C [Example 21, 1-[(3,4-dichlorophenyl)methyl]-3,7-dimethyl-8-(methylamino)-2,3,6,7-tetrahydro-1H-purine-2,6-dione] |
| 1 to 5 µM | Cn1c(N[C@H]2CC[C@@H](O)C2)nc2c1c(=O)n(Cc1ccc3cc[nH]c3c1)c(=O)n2C (racemic) [Example 163, (±)-1-((1H-indol-6-yl)methyl)-8-((cis)-3-hydroxycyclopentylamino)-3,7-dimethyl-1H-purine-2,6(3H,7H)-dione] |
| 0.01 to 1 µM | Cn1c(Nc2ccnc(C3CC(C(N)=O)C3)c2)nc2c1c(=O)n(Cc1ccc(Cl)c(Cl)c1)c(=O)n2C (stereo not drawn) [Example 319, 3-(4-(1-(3,4-dichlorobenzyl)-3,7-dimethyl-2,6-dioxo-2,3,6,7-tetrahydro-1H-purin-8-ylamino)pyridin-2-yl)cyclobutanecarboxamide] |
| 0.01 to 1 µM | Cn1c(N[C@@H]2CCC[C@@H]2O)nc2c1c(=O)n(Cc1cc3c(Cl)cccc3[nH]1)c(=O)n2C [Example 359] |
